Among the test systems are EKVX NSCLC; U251 CNS; MALME-3M melanoma; SR leukemia; M14 melanoma; SK-MEL-28 melanoma; DU-145 prostate; HS 578T breast; T-47D breast; MDA-MB-435.
Common to all, as to assay: DTP human tumour cell line panel, 48 h

SMILES strings stand for the structures. Values joined by “and” are separate entries in the source; they are usually repeats but may differ in a detail not shown here. Equal entries are not always repeated.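 Step 1: Grow cells in 96-well plates. Step 2: Expose to compound for 48 hours at 5 concentrations. Step 3: Interpolate endpoints linearly; if unreached, use highest concentration. Abbreviation: GI50, concentration required for 50% inhibition of growth. At the TGI there is no net growth.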 Bounds are passed on as bounds.

Turning to `COC(=O)/C(=N\NC(=O)C[N+](C)(C)C)C(C(=O)OC)C(=O)C(=O)Nc1ccccc1C(N)=O` (stereo not given), the TGI in the assay with EKVX NSCLC, in the assay with U251 CNS, in the assay on MALME-3M melanoma, with SR leukemia, with M14 melanoma and in the assay on SK-MEL-28 melanoma was more than 100 µM throughout.
With `O=[N+]([O-])c1ccc2c(c1)Cc1cc(N=Cc3ccc4c(c3)OCO4)ccc1-2`, the total growth inhibition concentration (TGI) with EKVX NSCLC, with DU-145 prostate, in the assay with HS 578T breast, in the assay on T-47D breast, in the assay with U251 CNS and in the assay with MALME-3M melanoma was more than 100 µM each time. Besides, the TGI with M14 melanoma, in the assay with MDA-MB-435 and in the assay on SK-MEL-28 melanoma was more than 100 µM in each case.
Take `COc1cccc2c1C(=O)c1c(O)c3c(c(O)c1C2=O)CC(O)(C(O)CO)CC3OC1CC(N2CCOCC2)C(O)C(C)O1` (stereo not given): the GI50 (in general, the concentration that inhibits growth by half) in the assay with EKVX NSCLC is 0.0304 µM; in the assay on U251 CNS it was 0.0155 µM; with MALME-3M melanoma, 0.0132 µM; in the assay with M14 melanoma, 0.0158 µM; in the assay with SK-MEL-28 melanoma, 0.0221 µM. In addition, the TGI – broadly, the concentration giving total growth inhibition – is 0.0334 µM and 0.146 µM in the assay on EKVX NSCLC; 3.31 µM in the assay with DU-145 prostate; 0.214 µM in the assay with HS 578T breast; 1.26 µM and 1.05 µM with U251 CNS; 0.00768 µM and 0.0309 µM in the assay with MALME-3M melanoma; 0.0288 µM and 0.0381 µM in the assay with M14 melanoma. For the same molecule, the TGI in the assay with MDA-MB-435 is 0.0568 µM; in the assay with SK-MEL-28 melanoma, 0.0168 µM and 0.0592 µM.
On to `O=C(Cn1c(=O)c(-c2ccccc2)nc2ccccc21)Nc1ccc(F)cc1`, for which the GI50 in the assay with EKVX NSCLC is 87.1 µM; in the assay with DU-145 prostate, 43.4 µM; with HS 578T breast, 29.9 µM; in the assay with T-47D breast it was 50.8 µM; in the assay on U251 CNS, 48 µM; in the assay on MALME-3M melanoma, 43 µM. For the same molecule, the GI50 in the assay with M14 melanoma, in the assay on MDA-MB-435 and with SK-MEL-28 melanoma was more than 100 µM in each case. The concentration for total growth inhibition (TGI) in the assay on EKVX NSCLC was more than 100 µM; in the assay on DU-145 prostate, more than 100 µM; with HS 578T breast it was 88.8 µM; in the assay with T-47D breast, more than 100 µM; with U251 CNS, more than 100 µM; with MALME-3M melanoma it was more than 100 µM. The TGI in the assay on M14 melanoma, with MDA-MB-435 and in the assay with SK-MEL-28 melanoma was more than 100 µM throughout.
For `O=c1[nH]nc2ccccc2c1Cc1ccccc1`, the concentration for total growth inhibition (TGI) with EKVX NSCLC, in the assay with U251 CNS, in the assay with MALME-3M melanoma, with M14 melanoma and in the assay with SK-MEL-28 melanoma was more than 100 µM in each case.
As for `O=C(NC(=O)c1cn(CCN(CCO)C(=O)NCCCCCCNC(=O)N(CCO)CCn2cc(C(=O)NC(=O)OCc3ccccc3)c(=O)[nH]c2=O)c(=O)[nH]c1=O)OCc1ccccc1`, the TGI in the assay with EKVX NSCLC, with U251 CNS, with MALME-3M melanoma, in the assay on M14 melanoma and with SK-MEL-28 melanoma was more than 100 µM in each case.
With `Clc1ccc(N=Nc2nc3ccccc3nc2N=Nc2ccc(Cl)cc2Cl)c(Cl)c1`, the total growth inhibition concentration (TGI) with EKVX NSCLC, with U251 CNS, in the assay with MALME-3M melanoma, in the assay on SR leukemia and with SK-MEL-28 melanoma was more than 100 µM throughout.
On to `COc1ccc(-c2nc(/C=N/Nc3cc(C)nc4ccc(Cl)cc34)c(C)o2)cc1`, for which the GI50 in the assay with EKVX NSCLC is 1.82 µM; with DU-145 prostate it was 1.75 µM; in the assay with HS 578T breast it was 1.84 µM; in the assay on T-47D breast, 1.71 µM; with U251 CNS, 1.78 µM; in the assay on MALME-3M melanoma it was 1.84 µM. Also, the GI50 is 1.74 µM with M14 melanoma, 1.65 µM in the assay with MDA-MB-435 and 1.8 µM in the assay with SK-MEL-28 melanoma. The TGI is 3.29 µM in the assay with EKVX NSCLC; 3.25 µM in the assay with DU-145 prostate; 3.79 µM with HS 578T breast; 3.56 µM in the assay with T-47D breast; 3.28 µM with U251 CNS; 3.43 µM in the assay on MALME-3M melanoma. The concentration for total growth inhibition (TGI) in the assay on M14 melanoma was determined as 3.36 µM; in the assay on MDA-MB-435 it was 3.07 µM; in the assay on SK-MEL-28 melanoma it was 3.24 µM.
Take `CCN(CC)CCOc1ccc(CCc2cc(OC)c(OC)c(OC)c2)cc1`: the TGI in the assay with EKVX NSCLC was more than 100 µM; in the assay with U251 CNS, more than 100 µM; with MALME-3M melanoma, more than 100 µM; with SR leukemia, more than 100 µM; with M14 melanoma it was 34.3 µM; with SK-MEL-28 melanoma, more than 100 µM.
With `Cc1ccc(SSc2ccc(C)cc2C(=O)O)c(C(=O)O)c1`, the concentration for total growth inhibition (TGI) in the assay with EKVX NSCLC, with U251 CNS, in the assay on MALME-3M melanoma, in the assay on SR leukemia and in the assay with SK-MEL-28 melanoma was more than 100 µM in each case.
Turning to `C=CCNC(=O)N(CCCC(NC(C)=O)C(=O)NCc1ccccc1)Cc1ccccc1` (stereo not given), the concentration for total growth inhibition (TGI) in the assay on EKVX NSCLC, with U251 CNS, in the assay with MALME-3M melanoma, in the assay on M14 melanoma and with SK-MEL-28 melanoma was more than 100 µM throughout.
On to `Cc1oc2c(C)c3oc(=O)cc(C)c3cc2c1CN1C(=O)C2OCCOCCOCCOCCOCCO[C@H]2C1=O` (stereo not given in full), for which the TGI with EKVX NSCLC, with U251 CNS, in the assay with MALME-3M melanoma, with SR leukemia and in the assay on M14 melanoma was more than 100 µM throughout.
Regarding `COc1ccc2c(c1)[n+]([O-])c(-c1ccc(OC)c(OC)c1)c(N)[n+]2[O-]`, the TGI in the assay on EKVX NSCLC was more than 100 µM; with U251 CNS it was more than 100 µM; in the assay with MALME-3M melanoma it was more than 100 µM; in the assay with M14 melanoma it was more than 100 µM; in the assay on SK-MEL-28 melanoma, 69.4 µM.
Consider `C#CC1(O)C(COP(=O)(O)OC(COCCCCCCCCCCCCCCCCCC)COP(=O)(O)OCC2OC(n3cc(F)c(=O)[nH]c3=O)CC2O)OC(n2ccc(N)nc2=O)C1O` (stereo not given), for which the GI50 in the assay with EKVX NSCLC is 1.42 µM and 5.06 µM; in the assay with DU-145 prostate, 0.274 µM and 0.0722 µM; in the assay with HS 578T breast it was 2.12 µM and 1.03 µM; with U251 CNS it was < 0.0428 µM and 0.177 µM; with MALME-3M melanoma, 0.742 µM and 0.202 µM; in the assay on M14 melanoma, 1.53 µM and 0.218 µM. In addition, in the assay on SK-MEL-28 melanoma, the GI50 was 0.618 µM and 1.49 µM. Moreover, the concentration for total growth inhibition (TGI) in the assay on EKVX NSCLC is > 35.2 µM and 71.4 µM; with DU-145 prostate, more than 100 µM; in the assay on HS 578T breast it was 44.8 µM and 17.2 µM; with U251 CNS it was 17.2 µM and 20.6 µM; in the assay with MALME-3M melanoma, 21.8 µM and 3.51 µM; with M14 melanoma, 24.3 µM and 2.74 µM. Besides, the TGI with MDA-MB-435 was 3.08 µM and 5.9 µM; in the assay on SK-MEL-28 melanoma, 21.8 µM and 28.8 µM.
For the molecule `COC1OC(CBr)C(OC(=O)c2ccccc2)C(O)C1Br` (stereo not given), the concentration for total growth inhibition (TGI) in the assay on U251 CNS, with MALME-3M melanoma, in the assay on SR leukemia, in the assay on M14 melanoma and in the assay on SK-MEL-28 melanoma was more than 100 µM in each case.

These data come from PubChem BioAssay (NCI).
